Laboratory results as given in BindingDB's records for PubMed 1656026 (University of Nebraska, 1991).
Several values for one entry are separate records, joined by “and”; a condition that tells them apart may be missing. Equal entries are not always repeated. Structures can show the parent of a compound that is named as a salt. Numbered stars: 1 amine (or outer) side, 2 acyl side, 3 side chain; on linkers, the order of the positions; unused ones are H or OH. Square brackets hold non-standard residues; d marks the D form. Peptide text beside a SMILES is read from it. * marks the point of attachment. Cyclohexylacetyl(1-SH) = O=C(CC1(S)CCCCC1)*; X1 = O=C(C(C=S)N[*:1])[*:2]

Columns and labels:
[1] = target: T1, Alpha-2B adrenergic receptor (Rattus norvegicus, UniProt P19328)
T1 sequence (P19328 whole entry): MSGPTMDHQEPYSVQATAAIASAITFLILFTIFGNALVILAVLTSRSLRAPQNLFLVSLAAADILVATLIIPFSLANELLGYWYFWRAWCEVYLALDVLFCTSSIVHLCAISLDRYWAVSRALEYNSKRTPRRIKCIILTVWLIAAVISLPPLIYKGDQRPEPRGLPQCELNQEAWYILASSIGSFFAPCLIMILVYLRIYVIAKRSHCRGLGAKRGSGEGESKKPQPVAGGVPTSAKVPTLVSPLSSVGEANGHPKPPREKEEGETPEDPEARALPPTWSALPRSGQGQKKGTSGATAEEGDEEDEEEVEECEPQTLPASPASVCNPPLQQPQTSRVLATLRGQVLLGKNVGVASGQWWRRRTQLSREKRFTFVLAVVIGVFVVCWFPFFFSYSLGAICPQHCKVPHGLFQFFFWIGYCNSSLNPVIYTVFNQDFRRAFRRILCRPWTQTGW

[2] = target: Alpha-2C adrenergic receptor
[3] = target: T2, Alpha-2A adrenergic receptor (Homo sapiens, UniProt P08913)
T2 sequence (P08913 whole entry): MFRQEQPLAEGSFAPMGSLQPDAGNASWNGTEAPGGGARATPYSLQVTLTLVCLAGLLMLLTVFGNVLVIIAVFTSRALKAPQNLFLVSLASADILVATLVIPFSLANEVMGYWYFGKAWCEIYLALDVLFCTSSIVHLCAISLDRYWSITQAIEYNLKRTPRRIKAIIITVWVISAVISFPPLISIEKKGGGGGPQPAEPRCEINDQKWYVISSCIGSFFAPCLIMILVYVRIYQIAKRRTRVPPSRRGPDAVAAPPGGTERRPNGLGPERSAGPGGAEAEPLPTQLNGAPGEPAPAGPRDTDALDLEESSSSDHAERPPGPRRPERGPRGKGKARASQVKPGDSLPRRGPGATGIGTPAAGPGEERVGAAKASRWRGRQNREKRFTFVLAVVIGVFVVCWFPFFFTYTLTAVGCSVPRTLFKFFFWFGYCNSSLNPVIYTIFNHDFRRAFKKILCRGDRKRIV

[4] = target: T3, Alpha-2C adrenergic receptor (Didelphis virginiana, UniProt P35405)
T3 sequence (P35405 whole entry): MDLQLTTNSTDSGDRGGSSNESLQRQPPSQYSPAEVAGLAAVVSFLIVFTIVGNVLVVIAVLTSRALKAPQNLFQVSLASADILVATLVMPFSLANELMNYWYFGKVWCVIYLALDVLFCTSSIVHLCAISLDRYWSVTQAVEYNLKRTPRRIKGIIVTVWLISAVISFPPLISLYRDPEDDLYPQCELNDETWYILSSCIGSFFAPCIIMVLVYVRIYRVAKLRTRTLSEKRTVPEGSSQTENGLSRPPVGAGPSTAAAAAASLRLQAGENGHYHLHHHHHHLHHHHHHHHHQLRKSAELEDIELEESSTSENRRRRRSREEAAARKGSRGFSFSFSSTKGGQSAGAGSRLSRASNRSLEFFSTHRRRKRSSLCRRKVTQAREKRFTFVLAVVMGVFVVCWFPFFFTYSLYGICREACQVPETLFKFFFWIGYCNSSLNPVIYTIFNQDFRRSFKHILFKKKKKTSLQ

Row | Structure (SMILES) | Ki [1] | Ki [2] | Ki [3] | Ki [4]
1 | CCCN(CCC)C1CCc2cccc(O)c2C1 (stereo unspecified) | 148 nM | 117 nM | 186 nM | 
2 | CC(C)(C)[C@]1(O)CCN2C[C@H]3c4ccccc4CCc4cccc(c43)[C@@H]2C1 | 12 nM | 42 nM | 53 nM | 
3 | c1ccc2c(c1)OCC(C1=NCCN1)O2 (stereo unspecified) |  | 0.56 nM |  | 2.4 nM
4 | CN1c2ccc(F)cc2CC1C1=NCCN1 (stereo unspecified) | 1 nM | 0.48 nM | 0.4 nM | 
5 | Clc1ccc2nsnc2c1NC1=NCCN1 | 76 nM | 75 nM |  | 
6 | OCCN1CCN(CCCN2c3ccccc3Sc3ccc(C(F)(F)F)cc32)CC1 [2-[4-[3-[2-(trifluoromethyl)phenothiazin-10-yl]propyl]piperazin-1-yl]ethanol;hydrochloride] | 320 nM | 122 nM | 304 nM | 
7 | O=C(c1ccc(F)cc1)C1CCN(CCn2c(=O)[nH]c3ccccc3c2=O)CC1 [3-(2-{4-[(4-fluorophenyl)carbonyl]piperidin-1-yl}ethyl)-1,2,3,4-tetrahydroquinazoline-2,4-dione] | 226 nM | 159 nM |  | 
8 | CN1CCN(C2=c3ccccc3=Nc3ccc(Cl)cc3N2)CC1 [6-chloro-10-(4-methylpiperazin-1-yl)-2,9-diazatricyclo[9.4.0.0^{3,8}]pentadeca-1,3(8),4,6,10,12,14-heptaene] |  | 4.2 nM |  | 
9 | O=C1NCN(c2ccccc2)C12CCN(CC1COc3ccccc3O1)CC2 (stereo unspecified) [8-(2,3-Dihydro-benzo[1,4]dioxin-2-ylmethyl)-1-phenyl-1,3,8-triaza-spiro[4.5]decan-4-one] | 0.34 nM | 0.59 nM | 13 nM | 0.67 nM
10 | CSc1ccc2c(c1)N(CC[C@@H]1CCCCN1C)c1ccccc1S2 [10-[2-(1-Methyl-piperidin-2-yl)-ethyl]-2-methylsulfanyl-10H-phenothiazine (thioridazine)] |  | 549 nM |  | 
11 | COC(=O)C1=CO[C@@H](C)[C@@H]2CN3CCc4c([nH]c5ccccc45)[C@H]3C[C@H]12 [AKUAMMIGINE] | 208 nM | 12 nM | 130 nM | 
12 | COC(=O)C1=COC(C)C2CN3CCc4c([nH]c5ccccc45)C3CC12 (stereo unspecified) [Ajmalicine] |  | 1.1 nM and 0.3 nM |  | 
13 | CN1C[C@H](Cn2ccnc2-c2ccccc2)C[C@@H]2c3cccc4[nH]c(Br)c(c34)C[C@H]21 [BAM-1303] | 26 nM | 0.38 nM | 2.5 nM | 
14 | O=C1c2ccccc2CCC1CNCCc1ccc(O)cc1 (stereo unspecified) [CAS_34772] | 0.68 nM | 0.5 nM | 0.93 nM | 
15 | Clc1cccc2c1CN(NC1=NCCN1)C2 [CAS_76727-72-5] | 0.14 nM | 0.08 nM | 0.06 nM | 
16 | Cc1nc2n(c(=O)c1CCN1CCC(C(=O)c3ccc(F)cc3)CC1)CCS2 [CAS_86487-64-1] | 25 nM | 51 nM | 90 nM | 
17 | CS(=O)(=O)NCCN(C1CCN2CCc3ccccc3C2C1)S(C)(=O)=O (stereo unspecified) [CAS_125697] | 5.2 nM | 0.56 nM | 11 nM | 
18 | Cc1cccc(C)c1CCc1cnc[nH]1 [CAS_133305] | 18 nM | 14 nM | 8.7 nM | 
19 | CCCS(=O)(=O)N(C)C1CCN2CCc3ccccc3C2C1 (stereo unspecified) [CAS_133816] | 1.9 nM | 0.86 nM | 2.2 nM | 
20 | CCOc1ccc(CC(NC(=O)CC2(S)CCCCC2)C(=O)NC(Cc2ccccc2)C(=O)NC(C(=O)NC(CC(N)=O)C(=O)NC(C=S)C(=O)NC(CCCCN)C(N)=O)C(C)C)cc1 (stereo unspecified) [CAS_196343] ({Cyclohexylacetyl(1-SH)}-Y(Et)FVN[X1]K-NH2; configuration not given here) | 0.48 nM | 0.14 nM | 0.36 nM | 

Row | Structure (SMILES) | Ki [1] | Ki [2] | Ki [3] | Ki [4]
21 | CN1CCN(C2=Nc3ccccc3Sc3nccn32)CC1 [CGS-10746B] | 574 nM | 804 nM | 3600 nM | 
22 | Clc1cncc(N2CCNCC2)n1 [L-630,571] | 125 nM | 126 nM | 153 nM | 
23 | c1cn2ccnc2c(N2CCNCC2)n1 [L-639,019] | 34 nM | 88 nM | 35 nM | 
24 | Fc1cccnc1N1CCNCC1 [L-644,763] | 23 nM | 20 nM | 20 nM | 
25 | CN1CCC2(CCN3CCc4c(oc5ccccc45)C3C2)N(C)C1=O (stereo unspecified) [MK-912] | 0.26 nM | 0.03 nM | 0.42 nM | 
26 | Oc1ccc(C2CNCCc3c2cc(O)c(O)c3Cl)cc1 (stereo unspecified) [MLS001401388] | 91 nM | 22 nM |  | 
27 | CN1CCc2cccc(Cl)c2CC1 [MLS002172470] | 1.8 nM | 2.7 nM | 2.4 nM | 
28 | CCCCS(=O)(=O)N(C)[C@H]1CCN2CCc3ccccc3[C@H]2C1 [N-[(2S,11bR)-2,3,4,6,7,11b-hexahydro-1H-benzo[a]quinolizin-2-yl]-N-methylbutane-1-sulfonamide hydrochloride] | 1.7 nM | 0.46 nM | 1.4 nM | 
29 | C=CCN1Cc2ccccc2-c2ccccc2C1 [NSC_8966] | 5.3 nM | 14 nM | 38 nM | 
30 | CN(C)CCCN1c2ccc(O)cc2Sc2ccc(Cl)cc21 [NSC_16414] | 59 nM | 325 nM |  | 
31 | CCC1(c2cnc[nH]2)Cc2ccccc2C1 [NSC_71310] |  | 0.46 nM | 0.33 nM | 2.74 nM
32 | COc1ccccc1N1CCN(CCC2C(=O)c3ccccc3C(C)(C)C2=O)CC1 (stereo unspecified) [NSC_122211] | 1.6 nM | 13 nM | 171 nM | 48 nM
33 | CCOC1(C2=NCCN2)COc2ccccc2O1 (stereo unspecified) [NSC_125992] | 0.58 nM | 0.24 nM | 0.2 nM | 
34 | COc1cccc(OC)c1OCCNCC1Oc2ccccc2OC1c1ccccc1 (stereo unspecified) [NSC_185453] | 8.7 nM | 0.27 nM | 1.2 nM | 1.6 nM
35 | c1ccc2c(c1)OCC(CN1CCCCC1)O2 (stereo unspecified) [Piperoxan] | 2 nM | 1.3 nM | 5.4 nM | 
36 | CC(C)=CCOc1ccc(Cl)c2c1CCN(C)CC2 [SK&F-104078] | 49 nM | 43 nM | 32 nM | 
37 | Cc1cc(C(C)(C)C)c(O)c(C)c1CC1=NCCN1 [SMR000059324] |  |  |  | 73 nM
38 | c1ccc(CC2=NCCN2)cc1 [Tolazoline] | 113 nM | 222 nM |  | 
39 | CN(C)CCCN1c2ccccc2Sc2ccc(Cl)cc21 [[3-(2-Chloro-phenothiazin-10-yl)-propyl]-dimethyl-amine(Chlorpromazine)] |  |  |  | 116 nM
40 | COc1cc2nc(N3CCN(C(=O)c4ccco4)CC3)nc(N)c2cc1OC [[3H]-Minipress] |  | 15 nM |  | 36 nM
